Measured values: article PMC9942120 (iScience, 2023)

Target: T1, UBE2O (Homo sapiens, UniProt Q9C0C9)
T1 sequence (Q9C0C9 1-1292): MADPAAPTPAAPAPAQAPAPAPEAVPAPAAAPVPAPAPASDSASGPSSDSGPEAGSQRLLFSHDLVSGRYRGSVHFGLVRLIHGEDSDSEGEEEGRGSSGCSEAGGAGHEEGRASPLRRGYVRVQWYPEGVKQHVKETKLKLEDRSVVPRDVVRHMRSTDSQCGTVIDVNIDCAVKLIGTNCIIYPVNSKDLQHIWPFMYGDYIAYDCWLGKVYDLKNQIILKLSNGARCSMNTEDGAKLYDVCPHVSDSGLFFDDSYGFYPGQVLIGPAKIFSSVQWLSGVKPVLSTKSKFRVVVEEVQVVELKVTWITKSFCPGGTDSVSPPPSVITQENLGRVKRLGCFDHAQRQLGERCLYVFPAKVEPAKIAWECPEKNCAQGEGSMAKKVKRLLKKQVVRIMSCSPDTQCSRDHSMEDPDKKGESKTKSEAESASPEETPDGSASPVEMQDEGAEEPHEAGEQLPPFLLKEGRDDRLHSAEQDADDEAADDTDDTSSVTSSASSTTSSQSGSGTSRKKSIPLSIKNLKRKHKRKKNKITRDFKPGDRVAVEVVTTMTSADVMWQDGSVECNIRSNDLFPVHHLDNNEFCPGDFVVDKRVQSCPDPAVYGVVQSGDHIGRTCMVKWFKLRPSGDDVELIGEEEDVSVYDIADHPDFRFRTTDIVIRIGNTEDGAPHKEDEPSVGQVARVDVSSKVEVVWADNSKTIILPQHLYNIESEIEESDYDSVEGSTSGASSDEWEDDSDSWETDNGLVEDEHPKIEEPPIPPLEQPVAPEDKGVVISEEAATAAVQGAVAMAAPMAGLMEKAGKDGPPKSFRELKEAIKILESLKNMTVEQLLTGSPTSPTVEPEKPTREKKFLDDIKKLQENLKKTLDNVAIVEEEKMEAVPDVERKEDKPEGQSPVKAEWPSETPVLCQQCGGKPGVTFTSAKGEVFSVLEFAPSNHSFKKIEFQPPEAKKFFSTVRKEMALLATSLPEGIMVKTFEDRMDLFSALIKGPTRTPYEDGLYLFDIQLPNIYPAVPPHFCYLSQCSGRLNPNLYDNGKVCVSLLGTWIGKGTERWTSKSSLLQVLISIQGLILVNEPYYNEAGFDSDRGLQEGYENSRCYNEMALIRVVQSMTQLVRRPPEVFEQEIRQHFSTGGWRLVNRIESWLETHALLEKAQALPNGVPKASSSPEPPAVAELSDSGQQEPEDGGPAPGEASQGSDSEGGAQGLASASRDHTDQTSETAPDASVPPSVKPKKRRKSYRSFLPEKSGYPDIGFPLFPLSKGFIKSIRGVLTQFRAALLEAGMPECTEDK
Assay: direct LC-MS/MS profiling of modified tryptic peptides
Assay type: cell-based
Details: covalent at Cys370; H358 cells, […] AMG510, […] h (methods print […] h)

Question: How did the “direct LC-MS/MS profiling of modified tryptic peptides” value turn out when `C=CC(=O)N1CCN(c2nc(=O)n(-c3c(C)ccnc3C(C)C)c3nc(-c4c(O)cccc4F)c(F)cc23)[C@@H](C)C1` [AMG510] was run?
Answer: Its value is “They included enzymes (PLOD3 C691, RPE C5, SPTLC2 C99, UBE2O C370, and TK1 C3)”.
